Assay: xn = mol fraction of the nth substance listed

CCCCOC(=O)c1ccccc1C(=O)OCCCC + CCO
303.15 K, 101.33 kPa
Conditions | viscosity [mPa·s]
x1 = 0.0982 | 1.555
x1 = 0.1991 | 2.302
x1 = 0.4046 | 4.211
x1 = 0.5046 | 5.31
x1 = 0.5634 | 6.002
x1 = 0.694 | 7.761
x1 = 0.807 | 9.476
x1 = 0.8877 | 10.91
x1 = 0.9316 | 11.68

CN(C)c1ccccc1 + O=[N+]([O-])c1ccccc1
298.15 K, 101 kPa
Conditions | viscosity [mPa·s]
x2 = 0.1239 | 1.337
x2 = 0.2063 | 1.355
x2 = 0.5628 | 1.488
x2 = 0.6512 | 1.565
x2 = 0.8325 | 1.702
x2 = 0.9168 | 1.766

CC(=O)[O-].CCCC[NH3+] + O
Conditions | viscosity [mPa·s]
293.15 K, 101 kPa, x1 = 0.4013 | 53.35

CC(C)(C)Cl + C1CCOC1
101 kPa
Conditions | viscosity [mPa·s]
298.15 K, x2 = 0.0634 | 0.4743
298.15 K, x2 = 0.1288 | 0.4733
298.15 K, x2 = 0.2423 | 0.4718
298.15 K, x2 = 0.3198 | 0.4705
298.15 K, x2 = 0.4555 | 0.4684
298.15 K, x2 = 0.5341 | 0.4673
298.15 K, x2 = 0.6598 | 0.4656
298.15 K, x2 = 0.7441 | 0.4647
298.15 K, x2 = 0.8407 | 0.4639
298.15 K, x2 = 0.8916 | 0.4636
298.15 K, x2 = 0.961 | 0.4633
313.15 K, x2 = 0.0557 | 0.3913
313.15 K, x2 = 0.0959 | 0.3917
313.15 K, x2 = 0.1963 | 0.3928
313.15 K, x2 = 0.296 | 0.3935
313.15 K, x2 = 0.3892 | 0.394
313.15 K, x2 = 0.521 | 0.3945
313.15 K, x2 = 0.5951 | 0.3946
313.15 K, x2 = 0.6368 | 0.3947
313.15 K, x2 = 0.8089 | 0.3951
313.15 K, x2 = 0.9009 | 0.3959
313.15 K, x2 = 0.9526 | 0.3968

CN(C)c1ccccc1 + CCC(C)=O
viscosity [mPa·s], 101 kPa
Conditions | 303.15 K | 308.15 K
x1 = 0.0689 | 0.487 | 0.438
x1 = 0.1256 | 0.574 | 0.516
x1 = 0.1905 | 0.671 | 0.605
x1 = 0.2652 | 0.776 | 0.701
x1 = 0.3256 | 0.853 | 0.773
x1 = 0.3905 | 0.926 | 0.84
x1 = 0.4621 | 0.993 | 0.905
x1 = 0.5362 | 1.048 | 0.958
x1 = 0.6058 | 1.086 | 0.997
x1 = 0.6753 | 1.113 | 1.025
x1 = 0.7416 | 1.129 | 1.045
x1 = 0.8056 | 1.14 | 1.06
x1 = 0.8826 | 1.149 | 1.076

CC(C)(C)Br + CCCCO
viscosity [mPa·s], 101.3 kPa
Conditions | x1 = 0.0518 | x1 = 0.106 | x1 = 0.2079 | x1 = 0.3109 | x1 = 0.4067 | x1 = 0.5054 | x1 = 0.6023 | x1 = 0.7004 | x1 = 0.7993 | x1 = 0.901
298.15 K | 2.264 | 2.002 | 1.638 | 1.377 | 1.203 | 1.055 | 0.9468 | 0.8591 | 0.7905 | 0.7428
313.15 K | 1.575 | 1.41 | 1.19 | 1.02 | 0.9075 | 0.8127 | 0.7355 | 0.6723 | 0.6264 | 0.5951

Cn1cc[n+](CCC[n+]2ccccc2)c1.[Br-].[Br-] + O
viscosity [mPa·s], 101 kPa
Conditions | 293.15 K | 298.15 K | 303.15 K | 308.15 K | 313.15 K
x1 = 0.0003405 | 1.016 | 0.905 | 0.811 | 0.734 | 0.667
x1 = 0.0004322 | 1.019 | 0.907 | 0.814 | 0.737 | 0.669
x1 = 0.0005421 | 1.021 | 0.909 | 0.816 | 0.739 | 0.672
x1 = 0.000689 | 1.023 | 0.911 | 0.819 | 0.742 | 0.675
x1 = 0.0008251 | 1.032 | 0.918 | 0.827 | 0.744 | 0.678
x1 = 0.0009589 | 1.035 | 0.921 | 0.829 | 0.747 | 0.681
x1 = 0.001109 | 1.038 | 0.924 | 0.832 | 0.749 | 0.684
x1 = 0.00128 | 1.041 | 0.927 | 0.835 | 0.752 | 0.687
x1 = 0.001457 | 1.043 | 0.93 | 0.837 | 0.755 | 0.689
x1 = 0.001664 | 1.047 | 0.933 | 0.839 | 0.758 | 0.691
x1 = 0.001904 | 1.05 | 0.936 | 0.841 | 0.761 | 0.693
x1 = 0.002122 | 1.053 | 0.939 | 0.843 | 0.763 | 0.696
x1 = 0.002357 | 1.057 | 0.942 | 0.846 | 0.766 | 0.699

O=BOB([O-])OB([O-])OB=O.[Na+].[Na+] + O
viscosity [mPa·s], 101 kPa
Conditions | x1 = 0.0009 | x1 = 0.0018 | x1 = 0.0022 | x1 = 0.0027
298.15 K | 0.9284 | 0.9681 | 0.9845 | 1.008
308.15 K | 0.7526 | 0.7823 | 0.7945 | 0.8122
318.15 K | 0.6216 | 0.6508 | 0.6626 | 0.6806

FC(F)(F)c1ccccc1 + CC(Cl)(Cl)Cl
298.15 K, 101.33 kPa
Conditions | viscosity [mPa·s]
x2 = 0.103 | 0.5617
x2 = 0.201 | 0.572
x2 = 0.301 | 0.5865
x2 = 0.402 | 0.6017
x2 = 0.502 | 0.6199
x2 = 0.602 | 0.6413
x2 = 0.701 | 0.6677
x2 = 0.8 | 0.7
x2 = 0.85 | 0.7179

[2H]O[2H] + C1COCCO1
viscosity [mPa·s], 101 kPa
Conditions | 303.1 K | 313.1 K | 323.1 K
x1 = 0.1561 | 1.112 | 0.944 | 0.817
x1 = 0.1831 | 1.154 | 0.972 | 0.831
x1 = 0.3467 | 1.317 | 1.092 | 0.918
x1 = 0.522 | 1.585 | 1.289 | 1.06
x1 = 0.5977 | 1.728 | 1.378 | 1.128
x1 = 0.6534 | 1.836 | 1.447 | 1.172
x1 = 0.7431 | 1.968 | 1.529 | 1.233
x1 = 0.8126 | 1.959 | 1.52 | 1.213
x1 = 0.8683 | 1.754 | 1.367 | 1.098
x1 = 0.9108 | 1.528 | 1.199 | 0.97
x1 = 0.9466 | 1.321 | 1.047 | 0.853
x1 = 0.9747 | 1.131 | 0.905 | 0.742

CN(C)c1ccccc1 + CC(=O)O
viscosity [mPa·s], 101 kPa
Conditions | x2 = 0.1008 | x2 = 0.201 | x2 = 0.3424 | x2 = 0.3973 | x2 = 0.4957 | x2 = 0.5978 | x2 = 0.7002 | x2 = 0.7928 | x2 = 0.8476 | x2 = 0.9025
298.15 K | 1.363 | 1.448 | 1.644 | 1.757 | 2.04 | 2.547 | 3.352 | 4.244 | 4.514 | 3.819
318.15 K | 0.9835 | 1.02 | 1.106 | 1.16 | 1.281 | 1.488 | 1.831 | 2.192 | 2.327 | 2.085
